The source made the active and inactive calls. No cut-off for these calls is given here.
How the values were obtained:
CREB-binding protein [1] = target: T1, CREB-binding protein (Homo sapiens, UniProt Q92793); assay: Competitive binding affinity to human His-tagged CREBBP expressed in T7 phage-infected Escherichia coli BL21(DE3) cells incubated for 1 hr by bromoscan assay
CREB-binding protein [2] = target: T1, CREB-binding protein; assay: Competitive binding affinity to human His-tagged CREBBP expressed in T7 phage-infected Escherichia coli BL21(DE3) cells at 50 uM incubated for 1 hr by bromoscan assay relative to control
Target sequence in this assay (Q92793 2-2442 limits assumed): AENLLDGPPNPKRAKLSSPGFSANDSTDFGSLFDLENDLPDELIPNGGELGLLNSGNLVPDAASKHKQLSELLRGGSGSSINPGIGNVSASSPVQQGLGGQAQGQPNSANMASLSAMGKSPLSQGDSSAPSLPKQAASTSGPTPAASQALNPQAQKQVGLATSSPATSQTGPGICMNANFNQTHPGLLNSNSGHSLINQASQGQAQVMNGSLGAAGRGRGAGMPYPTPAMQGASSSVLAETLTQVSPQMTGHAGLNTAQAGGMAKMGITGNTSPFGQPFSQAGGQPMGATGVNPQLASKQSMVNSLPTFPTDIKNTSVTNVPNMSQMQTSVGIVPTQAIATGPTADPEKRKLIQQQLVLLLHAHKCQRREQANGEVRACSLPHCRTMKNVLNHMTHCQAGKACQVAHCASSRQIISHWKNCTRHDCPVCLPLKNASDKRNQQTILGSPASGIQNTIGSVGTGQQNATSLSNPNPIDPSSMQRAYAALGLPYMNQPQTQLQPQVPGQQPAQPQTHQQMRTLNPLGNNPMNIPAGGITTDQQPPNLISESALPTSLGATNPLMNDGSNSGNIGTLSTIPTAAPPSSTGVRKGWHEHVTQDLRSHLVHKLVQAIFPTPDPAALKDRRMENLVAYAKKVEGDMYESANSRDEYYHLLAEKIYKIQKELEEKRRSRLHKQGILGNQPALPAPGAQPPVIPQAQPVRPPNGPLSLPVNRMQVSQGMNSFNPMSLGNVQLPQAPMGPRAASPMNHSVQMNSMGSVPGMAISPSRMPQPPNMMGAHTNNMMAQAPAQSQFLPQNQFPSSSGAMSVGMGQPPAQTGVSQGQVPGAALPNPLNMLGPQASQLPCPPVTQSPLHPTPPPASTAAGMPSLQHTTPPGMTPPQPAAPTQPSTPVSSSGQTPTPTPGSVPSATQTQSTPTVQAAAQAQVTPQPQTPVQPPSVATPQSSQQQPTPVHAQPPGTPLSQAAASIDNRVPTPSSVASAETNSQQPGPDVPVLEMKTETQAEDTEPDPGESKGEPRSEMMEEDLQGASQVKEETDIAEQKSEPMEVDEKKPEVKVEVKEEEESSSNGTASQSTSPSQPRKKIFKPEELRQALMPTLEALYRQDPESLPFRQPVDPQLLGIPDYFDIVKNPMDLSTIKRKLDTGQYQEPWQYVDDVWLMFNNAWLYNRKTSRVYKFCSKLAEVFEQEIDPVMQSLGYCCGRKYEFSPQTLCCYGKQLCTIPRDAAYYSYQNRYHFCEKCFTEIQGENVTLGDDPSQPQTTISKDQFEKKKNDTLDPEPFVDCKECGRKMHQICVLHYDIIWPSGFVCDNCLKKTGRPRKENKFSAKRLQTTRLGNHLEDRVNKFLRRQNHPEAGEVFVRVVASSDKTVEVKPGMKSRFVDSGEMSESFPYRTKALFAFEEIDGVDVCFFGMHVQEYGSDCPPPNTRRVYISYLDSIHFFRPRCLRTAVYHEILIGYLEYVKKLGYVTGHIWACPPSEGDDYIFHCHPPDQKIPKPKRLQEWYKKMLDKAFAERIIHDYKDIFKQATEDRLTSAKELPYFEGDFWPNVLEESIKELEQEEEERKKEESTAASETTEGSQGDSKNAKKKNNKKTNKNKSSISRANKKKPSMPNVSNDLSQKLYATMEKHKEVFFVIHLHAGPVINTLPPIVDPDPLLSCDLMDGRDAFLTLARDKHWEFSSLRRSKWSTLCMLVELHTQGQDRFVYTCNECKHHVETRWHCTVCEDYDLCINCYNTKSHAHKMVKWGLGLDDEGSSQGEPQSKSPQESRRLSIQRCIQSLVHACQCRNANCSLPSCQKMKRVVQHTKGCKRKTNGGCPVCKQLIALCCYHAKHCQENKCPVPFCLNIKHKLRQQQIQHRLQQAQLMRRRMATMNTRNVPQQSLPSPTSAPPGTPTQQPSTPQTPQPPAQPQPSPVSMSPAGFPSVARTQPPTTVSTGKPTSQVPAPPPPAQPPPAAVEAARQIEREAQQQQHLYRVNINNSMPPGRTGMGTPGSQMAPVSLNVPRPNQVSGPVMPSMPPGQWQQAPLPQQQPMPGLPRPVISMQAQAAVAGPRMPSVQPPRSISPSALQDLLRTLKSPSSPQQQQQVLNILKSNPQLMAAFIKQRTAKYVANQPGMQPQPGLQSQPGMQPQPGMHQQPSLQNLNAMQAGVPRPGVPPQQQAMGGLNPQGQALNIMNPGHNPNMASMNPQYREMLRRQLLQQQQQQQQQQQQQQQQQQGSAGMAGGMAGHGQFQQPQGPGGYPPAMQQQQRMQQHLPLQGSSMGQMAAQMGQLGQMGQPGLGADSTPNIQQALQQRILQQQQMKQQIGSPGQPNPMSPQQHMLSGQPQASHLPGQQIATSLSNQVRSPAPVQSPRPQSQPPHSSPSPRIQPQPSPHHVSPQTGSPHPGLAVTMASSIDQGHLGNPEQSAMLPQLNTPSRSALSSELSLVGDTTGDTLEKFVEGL

CREB-binding protein [3] = target: T1, CREB-binding protein; assay: Binding affinity to human His-tagged CREBBP expressed in Escherichia coli BL21(DE3) cells at 100 uM by SYPRO orange staining based fluorescence thermal shift assay
Target sequence in this assay (Q92793 2-2442 limits assumed): as above

CREB-binding protein [4] = target: T1, CREB-binding protein; assay: Inhibition of human recombinant GST-tagged CREBBP using non acetylated ligand 1 as substrate incubated for 2 hrs by TR-FRET assay
[5] = target: Histone acetyltransferase p300 (Homo sapiens) (UniProt Q09472); assay: Binding affinity to EP300 (unknown origin) at 100 uM by SYPRO orange staining based fluorescence thermal shift assay
MOLM-13 = assay: (§1) Cytotoxicity against human MOLM13 cells assessed as assessed as growth inhibition after 48 hrs by resazurin assay; format: functional
ML-2 = assay: (§2) Cytotoxicity against human ML2 cells assessed as growth inhibition after 48 hrs by resazurin assay; format: functional
HL-60 = assay: Cytotoxicity against human HL60 cells assessed as assessed as growth inhibition after 48 hrs by resazurin assay; format: functional, cell-based
[6] = as §1; format: functional; details: MOLM-13, 48 h
[7] = as §2; format: functional; details: ML-2, 48 h
[8] = target: T2, Bromodomain-containing protein 4 (Homo sapiens, UniProt O60885); assay: Binding affinity to human BRD4 bromodomain 1 expressed in Escherichia coli BL21(DE3) cells at 100 uM by SYPRO orange staining based fluorescence thermal shift assay
[9] = target: T2, Bromodomain-containing protein 4; assay: Competitive binding affinity to human BRD4 bromodomain 2 expressed in T7 phage-infected Escherichia coli BL21(DE3) cells incubated for 1 hr by bromoscan assay
CREB-binding protein [10] = target: T1, CREB-binding protein; assay: Binding affinity to human His-tagged CREBBP expressed in Escherichia coli BL21(DE3) cells by isothermal titration calorimetry
[11] = target: T2, Bromodomain-containing protein 4; assay: Competitive binding affinity to human BRD4 bromodomain 1 expressed in T7 phage-infected Escherichia coli BL21(DE3) cells incubated for 1 hr by bromoscan assay
[12] = target: T3, Bromodomain-containing protein 2 (Homo sapiens, UniProt P25440); assay: Competitive binding affinity to human BRD2 bromodomain 2 expressed in T7 phage-infected Escherichia coli BL21(DE3) cells incubated for 1 hr by bromoscan assay
T3 sequence (P25440 whole entry): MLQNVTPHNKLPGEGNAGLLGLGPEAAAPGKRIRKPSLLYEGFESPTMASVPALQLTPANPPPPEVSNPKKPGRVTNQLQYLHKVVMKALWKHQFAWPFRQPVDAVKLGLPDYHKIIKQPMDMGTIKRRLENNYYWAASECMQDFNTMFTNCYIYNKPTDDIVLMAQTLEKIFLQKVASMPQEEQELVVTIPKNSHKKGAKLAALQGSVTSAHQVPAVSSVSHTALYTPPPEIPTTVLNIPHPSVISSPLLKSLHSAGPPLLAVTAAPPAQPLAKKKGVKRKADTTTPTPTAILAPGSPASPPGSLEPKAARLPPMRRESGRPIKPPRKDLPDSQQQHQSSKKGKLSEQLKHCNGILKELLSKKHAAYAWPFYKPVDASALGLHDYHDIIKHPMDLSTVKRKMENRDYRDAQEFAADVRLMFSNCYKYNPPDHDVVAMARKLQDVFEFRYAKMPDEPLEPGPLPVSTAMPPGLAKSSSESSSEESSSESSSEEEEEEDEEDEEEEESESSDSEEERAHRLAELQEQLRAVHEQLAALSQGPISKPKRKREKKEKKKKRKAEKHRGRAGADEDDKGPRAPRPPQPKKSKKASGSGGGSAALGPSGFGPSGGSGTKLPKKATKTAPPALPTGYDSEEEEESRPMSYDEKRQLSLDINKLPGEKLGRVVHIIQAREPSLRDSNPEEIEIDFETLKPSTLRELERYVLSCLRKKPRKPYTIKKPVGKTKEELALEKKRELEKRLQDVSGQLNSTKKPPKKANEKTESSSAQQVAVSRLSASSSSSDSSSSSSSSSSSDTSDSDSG

[13] = target: T3, Bromodomain-containing protein 2; assay: Competitive binding affinity to human BRD2 bromodomain 1 expressed in T7 phage-infected Escherichia coli BL21(DE3) cells incubated for 1 hr by bromoscan assay
CREB-binding protein [14] = target: T1, CREB-binding protein; assay: Binding affinity to human His-tagged CREBBP expressed in Escherichia coli BL21(DE3) cells at 50 uM by SYPRO orange staining based fluorescence thermal shift assay
Target sequence in this assay (Q92793 2-2442 limits assumed): as the sequence (Q92793 2-2442 limits assumed) above

[15] = target: Histone acetyltransferase p300 (Homo sapiens) (UniProt Q09472); assay: Binding affinity to EP300 (unknown origin) at 50 uM by SYPRO orange staining based fluorescence thermal shift assay
CREB-binding protein [16] = target: T1, CREB-binding protein; assay: Competitive binding affinity to human His-tagged CREBBP expressed in T7 phage-infected Escherichia coli BL21(DE3) cells at 25 uM incubated for 1 hr by bromoscan assay relative to control
Target sequence in this assay (Q92793 2-2442 limits assumed): as above

| SMILES | Kd (CREB-binding protein [1]) | ΔTm (CREB-binding protein [3]) | IC50 (CREB-binding protein [4]) | ΔTm [5] | growth inhibition (GI) (HL-60) | also measured |
| --- | --- | --- | --- | --- | --- | --- |
| CCOc1ccc(C(C)=O)cc1NC(=O)/C=C/C(=O)O | 4.7 µM | 1.8 °C |  |  |  | Activity (CREB-binding protein [2]): 2.5% |
| CCOc1ccc(C(C)=O)cc1NC(=O)c1ccccc1C(=O)O |  | 1.9 °C | 64 µM |  |  |  |
| CC(=O)c1cccc(NC(=O)/C=C/C(=O)O)c1 |  | 0.1 °C | 30 µM |  |  |  |
| CCOc1ccc(C(C)=O)cc1NC(=O)c1cccc(NS(=O)(=O)c2ccccc2)c1 |  | 0.5 °C |  | 0.4 °C |  |  |
| CC(=O)c1ccc(N2CCOCC2)c(NC(=O)c2cccc(C(=O)O)c2)c1 |  | 1.4 °C |  | 1.3 °C |  |  |
| CC(=O)c1ccc(OCc2ccccc2)c(NC(=O)c2cccc(C(=O)O)c2)c1 |  | 3.3 °C |  | 2.6 °C |  |  |
| CCOc1ccc(C(C)=O)cc1NC(=O)c1cc(CO)cc(C(=O)O)c1 |  | 3.8 °C | 3 µM | 3.7 °C | Active | growth inhibition (GI) (MOLM-13): Active; growth inhibition (GI) (ML-2): Active |
| CCOc1ccc(C(C)=O)cc1NC(=O)c1cc(COC2CCCCO2)cc(C(=O)O)c1 (stereo unspecified) | 0.37 µM | 6 °C | 1 µM | 5.9 °C | Active | GI50 [6]: 5.3 µM; GI50 [7]: 14.4 µM; ΔTm [8]: 1.7 °C |
| CC(=O)c1ccc(OCC(C)C)c(NC(=O)c2cccc(C(=O)O)c2)c1 |  | 3.5 °C |  | 3 °C | Active | growth inhibition (GI) (MOLM-13): Active; growth inhibition (GI) (ML-2): Active |
| CC(=O)c1ccc(C2CC2)c(NC(=O)c2cccc(C(=O)O)c2)c1 |  | 3.1 °C | 15 µM | 3.1 °C |  |  |
| COc1ccc(C(C)=O)cc1NC(=O)/C=C/C(=O)O |  | 1.1 °C | 60 µM |  |  |  |
| CCOc1ccc(C(C)=O)cc1C(=O)Nc1cccc(C(=O)O)c1 | 2.5 µM | 3.4 °C |  |  | Active | growth inhibition (GI) (MOLM-13): Active; growth inhibition (GI) (ML-2): Active |
| CCCOc1ccc(C(C)=O)cc1NC(=O)c1cccc(C(=O)O)c1 |  | 3.8 °C | 7.4 µM | 3.4 °C | Active | growth inhibition (GI) (MOLM-13): Active; growth inhibition (GI) (ML-2): Active |
| CCOc1ccc(C(C)=O)cc1NC(=O)c1cc(C(=O)O)cc(-c2ccoc2)c1 | 0.17 µM | 5.2 °C | 1 µM | 5.9 °C | Active | Kd [9]: > 36 µM; Kd (CREB-binding protein [10]): 0.3 µM; Kd [11]: 9.8 µM; growth inhibition (GI) (MOLM-13): Active; growth inhibition (GI) (ML-2): Active; Kd [12]: 24 µM; ΔTm [8]: 1.5 °C; Kd [13]: 24 µM |
| CCOc1ccc(C(C)=O)cc1NC(=O)c1cc(C(=O)O)cc(-c2ccncc2)c1 |  |  | 3 µM |  |  | ΔTm (CREB-binding protein [14]): 4.1 °C; ΔTm [15]: 3.9 °C |
| CC(=O)c1cccc(NC(=O)N2C[C@@H](C)O[C@@H](c3ccccc3)C2)c1 |  |  |  |  |  | Activity (CREB-binding protein [2]): 9.4% |
| CCOc1ccc(C(C)=O)cc1NC(=O)C1CC1C(=O)O (stereo unspecified) |  | 1.1 °C | > 100 µM |  |  |  |
| CCOc1ccc(C(C)=O)cc1NC(=O)c1cccc(S(=O)(=O)Nc2ccccc2)c1 |  | 0 °C | > 10 µM | 0 °C |  |  |
| CCOc1ccc(C(=O)NC)cc1NC(=O)c1cccc(C(=O)O)c1 | 37 µM | 1.1 °C |  |  |  |  |
| CCOc1ccc(C(C)=O)cc1NC(=O)c1cccc(C(=O)O)c1 | 0.67 µM | 3.8 °C | 8.7 µM | 3.4 °C | Active | Kd [9]: > 50 µM; Kd (CREB-binding protein [10]): 2 µM; Kd [11]: > 50 µM; growth inhibition (GI) (MOLM-13): Active; growth inhibition (GI) (ML-2): Active; Kd [12]: > 50 µM; ΔTm [8]: 0.4 °C; Kd [13]: > 50 µM |
| CCOc1ccc(C(C)=O)cc1NC(=O)c1cc(COC)cc(C(=O)O)c1 | 0.53 µM | 5.1 °C | 2 µM | 4.6 °C | Active | Kd [9]: > 50 µM; Kd (CREB-binding protein [10]): 0.8 µM; Kd [11]: 25 µM; growth inhibition (GI) (MOLM-13): Active; growth inhibition (GI) (ML-2): Active; Kd [12]: > 50 µM; ΔTm [8]: 1.3 °C; Kd [13]: > 50 µM |
| CC(=O)c1cccc(NC(=O)c2c(-n3cnnn3)sc(C)c2C)c1 | 29 µM |  |  |  |  | Activity (CREB-binding protein [16]): 2% |
| CC(=O)c1ccc(F)c(NC(=O)/C=C/C(=O)O)c1 |  | -0.1 °C | > 100 µM |  |  |  |
| CC(=O)c1ccc(OCC2CC2)c(NC(=O)c2cccc(C(=O)O)c2)c1 |  | 3.4 °C |  | 3.6 °C | Active | growth inhibition (GI) (MOLM-13): Active; growth inhibition (GI) (ML-2): Active |
| CCOc1ccc(C(C)=O)cc1NC(=O)c1cccc(C(=O)OC)c1 | 0.49 µM | 2.8 °C | 5 µM |  |  |  |
| CCOc1ccc(C(C)=O)cc1NC(=O)c1cccc(-n2cnnn2)c1 |  | 3.3 °C | 7.5 µM | 2.6 °C |  |  |
| CC(=O)c1ccc(C)c(NC(=O)/C=C/C(=O)O)c1 |  | 0.2 °C | > 100 µM |  |  |  |
| CC(=O)c1cccc(NC(=O)Cn2c(=O)c3ccccc3n3nc(C)cc23)c1 |  |  |  |  |  | Activity (CREB-binding protein [16]): 22% |

— ChEMBL document CHEMBL3769355, “Fragment-Based Design of Selective Nanomolar Ligands of the CREBBP Bromodomain” (J Med Chem, 2016)
